In patent US7875587B2, “Peptide analogues of GIP for treatment of diabetes, insulin resistance and obesity” (UUTECH Limited, priority 2004, dated 2011):
Starred links: 1 amine or outer side, 2 acyl side, 3 side chain; linkers in the order of their positions; H or OH if unused. Non-standard residues stand in square brackets, D forms with d. No end group written: not given here. X1 = O=C([C@H](Cc1ccc(O)cc1)N(C[C@H](O)[C@@H](O)[C@H](O)[C@H](O)CO)[*:1])[*:2]; Hyp = O=C(O)[C@@H]1C[C@@H](O)CN1

Assays:
BRIN-BD11 cells [1] = test: GIP-stimulated insulin release from BRIN-BD11 cells (antagonism); assay type: cell-based; conditions: 5.6 mM glucose, native GIP 10^-7 M
Description: Tissue culture. […] Cells were maintained in sterile tissue culture flasks (Corning Glass Works, Sunderland, UK) at 37° C. in an atmosphere of 5% CO2 and 95% air using an LEEC incubator (Laboratory Technical Engineering, Nottingham, UK). Acute studies of insulin release. Insulin release from BRIN-BD11 cells was determined using cell monolayers ([…]. et al., 1996, Diabetes 45:1132-1140). Cells were harvested with the aid of trypsin/EDTA (Gibco), seeded into 24-multiwell plates (Nunc, Roskilde, Denmark) at a density of 1.0×10^5 cells per well, and allowed to attach overnight at 37° C.

DPP IV = molecular target: T1, DPP IV (Sus scrofa, UniProt P22411); test: Degradation of GIP and analogues by DPP IV (HPLC); assay type: in vitro ADME
T1 construct: purchased Sigma (Poole, Dorset, UK)
T1 sequence (P22411 whole entry): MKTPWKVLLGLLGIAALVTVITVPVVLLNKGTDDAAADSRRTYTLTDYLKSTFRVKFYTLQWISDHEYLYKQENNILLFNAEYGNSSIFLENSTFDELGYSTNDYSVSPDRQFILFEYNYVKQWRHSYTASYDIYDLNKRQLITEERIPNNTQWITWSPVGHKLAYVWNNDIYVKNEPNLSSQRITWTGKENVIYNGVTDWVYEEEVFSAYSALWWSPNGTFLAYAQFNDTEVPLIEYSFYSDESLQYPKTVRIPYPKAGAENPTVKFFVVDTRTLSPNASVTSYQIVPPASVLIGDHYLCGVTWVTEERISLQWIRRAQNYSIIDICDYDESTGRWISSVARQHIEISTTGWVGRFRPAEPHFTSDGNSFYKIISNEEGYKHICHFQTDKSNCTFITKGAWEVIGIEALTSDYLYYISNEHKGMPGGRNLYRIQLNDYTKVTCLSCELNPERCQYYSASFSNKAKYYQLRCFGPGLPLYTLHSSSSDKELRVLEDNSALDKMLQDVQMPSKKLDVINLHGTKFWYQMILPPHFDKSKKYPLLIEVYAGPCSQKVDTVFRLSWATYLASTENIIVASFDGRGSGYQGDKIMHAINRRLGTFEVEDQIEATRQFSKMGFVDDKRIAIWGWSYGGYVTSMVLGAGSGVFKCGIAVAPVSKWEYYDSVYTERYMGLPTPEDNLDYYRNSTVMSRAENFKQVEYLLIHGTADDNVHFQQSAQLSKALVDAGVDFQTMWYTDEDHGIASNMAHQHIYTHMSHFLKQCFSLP
Description: Degradation of GIP and Tyr^1-glucitol GIP by DPP IV. HPLC-purified GIP or Tyr^1-glucitol GIP were incubated at 37° C. with DPP-IV (5 mU) for various time periods in a reaction mixture made up to 500 μl with 50 mmol/l triethanolamine-HCl, pH 7.8 (final peptide concentration 1 mmol/l). Enzymatic reactions were terminated after 0, 2, 4 and 12 hours by addition of 5 μl of 10% (v/v) TFA/water. Samples were made up to a final volume of 1.0 ml with 0.12% (v/v) TFA and stored at −20° C. prior to HPLC analysis.
(§1) HPLC analysis of degraded GIP and Tyr^1-glucitol GIP. […] Using 0.1% (v/v) TFA in 70% acetonitrile/H20, the concentration of acetonitrile in the eluting solvent was raised from 0% to 31.5% over 15 min, to 38.5% over 30 minutes and from 38.5% to 70% over 5 minutes, using linear gradients. The absorbance was monitored at 206 nm and peak areas evaluated using a model 2221 LKB integrator. Samples recovered manually were concentrated using a Speed-Vac concentrator.
(§2) Electrospray ionization-mass spectrometry (ESI-MS) was carried out as described in Example 2. Degradation of GIP and novel GIP analogues by DPP IV and human plasma was carried out as described in Example 2.

[2] = Degradation of GIP and analogues by human plasma (HPLC); assay type: in vitro ADME
Description: Degradation of GIP and Tyr^1-glucitol GIP by human plasma. […] […] The reactions were terminated by addition of 5 μl of TFA and the final volume adjusted to 1.0 ml using 0.1% v/v TFA/water. Samples were centrifuged (13,000 g, 5 minutes) and the supernatant applied to a C-18 Sep-Pak cartridge (Millipore-Waters) which was previously primed and washed with 0.1% (v/v) TFA/water. […] The volume was adjusted to 1.0 ml with 0.12% (v/v) TFA/water prior to HPLC purification.
as §1, §2

Wistar rats = test: In vivo plasma glucose and insulin after i.p. glucose with peptide in Wistar rats; parameters: species or system rat
Description: In vivo biological activity of GIP and Tyr^1-glucitol GIP. Effects of GIP and Tyr^1-glucitol GIP on plasma glucose and insulin concentrations were examined using 10-12 week old male Wistar rats. The animals were housed individually in an air conditioned room and 22±2° C. with a 12 hour light/12 hour dark cycle. Drinking water and a standard rodent maintenance diet (Trouw Nutrition, Belfast, Northern Ireland) were supplied ad libitum. Food was withdrawn for an 18 hour period prior to intraperitoneal injection of glucose alone (18 mmol/kq body weight) or in combination with either GIP or Tyr^1-glucitol GIP (10 nmol/kg). Test solutions were administered in a final volume of 8 ml/kg body weight. Blood samples were collected at 0, 15, 30 and 60 minutes from the cut tip of the tail of conscious rats into chilled fluoride/heparin microcentrifuge tubes (Sarstedt, Numbrecht, Germany). Samples were centrifuged using a Beckman microcentrifuge for about 30 seconds at 13,000 g. Plasma samples were aliquoted and stored at −20° C. prior to glucose and insulin determinations. All animal studies were done in accordance with the Animals (Scientific Procedures) Act 1986.
Analyses. Plasma glucose was assayed by an automated glucose oxidase procedure using a Beckman Glucose Analyzer II [33]. Plasma insulin was determined by dextran charcoal radioimmunoassay as described previously. Incremental areas under plasma glucose and insulin area under the curve (AUC) were calculated using a computer program (CAREA) employing the trapezoidal rule with baseline subtraction. Results are expressed as mean±SEM and values were compared using the Student's unpaired t-test.

BRIN-BD11 cells [3] = test: Acute tests for insulin secretion from BRIN-BD11 cells; assay type: cell-based
Description: Culture of insulin secreting cells. BRIN-BD11 cells were cultured in sterile tissue culture flasks (Corning, Glass Works, UK) using RPMI-1640 tissue culture medium containing 10% (v/v) foetal calf serum, 1% (v/v) antibiotics (100 U/ml penicillin, 0.1 mg/ml streptomycin) and 11.1 mM glucose. The cells were maintained at 37° C. in an atmosphere of 5% CO2 and 95% air using a LEEC incubator (Laboratory Technical Engineering, Nottingham, UK).
Acute tests for insulin secretion. Before experimentation, the cells were harvested from the surface of the tissue culture flasks with the aid of trypsin/EDTA (Gibco), seeded into 24-multiwell plates (Nunc, Roskilde, Denmark) at a density of 1.5×10^5 cells per well, and allowed to attach overnight at 37° C. Acute tests for insulin release were preceded by 40 minutes pre-incubation at 37° C. in 1.0 ml Krebs Ringer bicarbonate buffer (115 mM NaCl, 4.7 mM KCl, 1.28 mM CaCl2, 1.2 mM KH2PO4, 1.2 mM MgSO4, 10 mM NaHCO3, 5 g/l bovine serum albumin, pH 7.4) supplemented with 1.1 mM glucose. Test incubations were performed (n=12) at two glucose concentrations (5.6 mM and 16.7 mM) with a range of concentrations (10^−13 to 10^−8 M) of GIP or GIP analogues. After 20 minutes incubation, the buffer was removed from each well and aliquots (200 μl) were used for measurement of insulin by radioimmunoassay.

[4] = 10 nmol/kg i.p. with glucose 18 mmol/kg, rats

In the case of “(Hyp^3)GIP: Glu^3-substituted form of GIP (hydroxyproline at position 3) (YA[Hyp]GTFISDYSIAMDKIHQQDFVNWLLAQKGKKNDWKHNITQ)”, the “inhibition of GIP-stimulated insulin secretion” value (from here on “inhibition”) (BRIN-BD11 cells [1]) is reported as “inhibited in a dose-dependent fashion”.
For “(Phe^3)GIP: Glu^3-substituted form of GIP (phenylalanine at position 3) (YAFGTFISDYSIAMDKIHQQDFVNWLLAQKGKKNDWKHNITQ)”, the “inhibition” value (BRIN-BD11 cells [1]) was “inhibited in a dose-dependent fashion”.
In the case of “[X1]AEGTFISDYSIAMDKIHQQDFVNWLLAQKGKKNDWKHNITQ [Glycated GIP]”, the “stability on incubation with DPP IV” value (DPP IV; Example 2, 2-12 hours incubation) is reported as “remained almost completely intact”, the “resistance to in vitro degradation with DPP IV relative to native GIP” value (DPP IV; Example 3, summary of Table 1) is reported as “more resistant than native GIP” and the “% Intact peptide remaining after time (h)” value (DPP IV; incubation with DPP IV, 0 h) is reported as 100%. For the same substance, the remaining at 2 h, 1 mmol/l (DPP IV; isolated enzyme dpp iv, pH 7.8, incubation with DPP IV, 2 h, read-out: % Intact peptide remaining after time (h)) was 100%, the remaining at 4 h, 1 mmol/l (DPP IV; isolated enzyme dpp iv, pH 7.8, incubation with DPP IV, 4 h, read-out: % Intact peptide remaining after time (h)) was 100% and the remaining at 8 h, 1 mmol/l (DPP IV; isolated enzyme dpp iv, pH 7.8, incubation with DPP IV, 8 h, read-out: % Intact peptide remaining after time (h)) was 100%. The remaining at 24 h, 1 mmol/l (DPP IV; isolated enzyme dpp iv, pH 7.8, incubation with DPP IV, 24 h, read-out: % Intact peptide remaining after time (h)) was 100%, the “% Intact peptide remaining after incubations with human plasma” value ([2]; 0 h) was 100% and the “effect of DPA on plasma degradation of the peptide” value ([2]; 24 hours in the presence of DPA) was “complete abolition of degradation”. The “% Intact peptide remaining after incubations with human plasma” value ([2]; 24 hours in the presence of DPA (diprotin A)) was 100%, the “degradation by human plasma” value ([2]; Example 2, 4 hours incubation) was “did not result in the formation of any detectable degradation fragments” and the remaining at 2 h, 20 µg/ml ([2]; human, plasma, pH 7.8, 2 h, read-out: % Intact peptide remaining after incubations with human plasma) was 100%. It also gave a remaining at 4 h, 20 µg/ml ([2]; human, plasma, pH 7.8, 4 h, read-out: % Intact peptide remaining after incubations with human plasma) of 100%, a remaining at 8 h, 20 µg/ml ([2]; human, plasma, pH 7.8, 8 h, read-out: % Intact peptide remaining after incubations with human plasma) of 100% and a remaining at 24 h, 20 µg/ml ([2]; human, plasma, pH 7.8, 24 h, read-out: % Intact peptide remaining after incubations with human plasma) of 100%. The “overall insulin response (AUC) compared with glucose alone” value (Wistar rats; 10 nmol/kg i.p. with glucose) was “significantly greater”, the “plasma insulin response (AUC) compared with GIP” value (Wistar rats; 10 nmol/kg i.p. with glucose) was “significantly greater than after GIP” and the “increase of antihyperglycemic action relative to GIP, estimated from AUC” value (Wistar rats; [4]) was 38%. For the same substance, the “increase of insulin-releasing action relative to GIP, estimated from AUC” value (Wistar rats; [4]) was 62%, the “plasma glucose AUC compared to GIP” value (Wistar rats; 10 nmol/kg i.p. with glucose, vs GIP) was “significantly lower” and the “plasma glucose concentrations and AUC compared with control group” value (Wistar rats; 10 nmol/kg i.p. with glucose, vs glucose alone, 0-60 min) was “significantly lower”. For the same substance, the “insulin secretion from BRIN-BD11 cells” value (BRIN-BD11 cells [3]; 5.6 and 16.7 mM glucose, 10^-13 to 10^-8 M peptide) was “considerably greater insulinotropic response compared with native peptide” and the “insulin-releasing potency relative to GIP” value (BRIN-BD11 cells [3]; glucose-responsive clonal B-cells) was “several orders of magnitude greater than GIP”.
With “(Lys^3)GIP: Glu^3-substituted form of GIP (lysine at position 3) (YAKGTFISDYSIAMDKIHQQDFVNWLLAQKGKKNDWKHNITQ)” the “inhibition” value (BRIN-BD11 cells [1]) was “inhibited in a dose-dependent fashion”.
With “(Tyr^3)GIP: Glu^3-substituted form of GIP (tyrosine at position 3) (YAYGTFISDYSIAMDKIHQQDFVNWLLAQKGKKNDWKHNITQ)” the “inhibition” value (BRIN-BD11 cells [1]) was “inhibited in a dose-dependent fashion”.
In the case of “GIP(3-42): N-terminally truncated GIP, main DPP IV metabolite after removal of Tyr^1-Ala^2 (EGTFISDYSIAMDKIHQQDFVNWLLAQKGKKNDWKHNITQ; listed as Homo sapiens)”, the “inhibition” value (BRIN-BD11 cells [1]) is reported as “inhibited in a dose-dependent fashion”.
For “(Trp^3)GIP: Glu^3-substituted form of GIP (tryptophan at position 3) (YAWGTFISDYSIAMDKIHQQDFVNWLLAQKGKKNDWKHNITQ)”, the “inhibition” value (BRIN-BD11 cells [1]) was “inhibited in a dose-dependent fashion”.
